Source: PMC11649784, “Re-design and evaluation of diclofenac-based carborane-substituted prodrugs and their anti-cancer potential” (Scientific Reports, 2024)

Tests used:
MC38 cells = test: DHR 123 ROS/RNS production, flow cytometry; assay type: cell-based, murine; conditions: IC50 concentration, 72 h
Method: For all flow cytometric analyses, MC38 cells were seeded overnight and then treated with the IC50 concentration of compound 3 for 72 h. The cells were harvested, washed, and stained according to the manufacturer’s instructions for each method. To determine whether the compound induces apoptosis, cells were double stained with AnnV-FITC and PI (15 μg mL^–1) for 15 min at RT in the dark. To detect caspase activity, cells were stained with the FITC-conjugated caspase inhibitor ApoStat for 30 min at [drawing 162] . To detect cell proliferation, MC38 cells were stained with CFSE (1 μM) for 10 min at [drawing 163] prior to seeding and then treated as previously described. To detect intracellular production of Reactive oxygen/nitrogen Species (ROS/RNS), MC38 cells were prestained with DHR 123 (1 [drawing 164] M) for 20 min at [drawing 165] , then seeded and exposed to an IC50 concentration of compound 3. After 72 h incubation, all samples were washed, resuspended in PBS and fluorescence intensity was analyzed using a CytoFLEX [drawing 166] flow cytometer (Beckman Coulter, Pasadena, CA, USA), while the data obtained was evaluated using the [drawing 167] software program.

HT29 cells = test: Crystal violet (CV) viability assay, HT29; assay type: cell-based, human; conditions: 72 h, mean±SD; read-out: IC50 [μM] (n = 3) HT29 CV
Method: In a preliminary test, the stability of all compounds dissolved in the cell medium (c = 100 μM, T = [drawing 47] ) for 72 h was validated by HPLC (see Supporting Information). Cell lines were incubated with the respective compounds in a concentration range of 1.56–100 μM for 72 h, and cell viability was measured using 3-(4,5-dimethylthiazol-2-yl)-2,5-diphenyltetrazolium bromide (MTT) and crystal violet (CV) assays. […] As MTT tests gave inconsistent results, possibly due to interference of the compound with mitochondrial respiration, for the further evaluation only the CV results are considered[97],[98].
(§1) The biological study was performed on a murine colon adenocarcinoma cell line (MC38), two human colorectal carcinoma cell lines (HCT116 and HT29), and a human fetal lung fibroblast cell line (MRC-5). All cell lines are commercially available and were obtained from the American Type Culture Collection (ATCC). The human cell lines were kept in HEPES-buffered RPMI-1640 medium supplemented with 10 [drawing 141] heat-inactivated FCS, 2 mM L-glutamine, 0.01 [drawing 142] sodium pyruvate, penicillin (100 units mL^−1), and, streptomycin ( [drawing 143] mL^-1). The MC38 cell line was maintained in DMEM medium additionally supplemented with 1 [drawing 144] non-essential amino acids. Cells were grown at [drawing 145] in a humidified atmosphere with 5 [drawing 146] [drawing 147] . Peritoneal exudate cells (PECs) were isolated from healthy C57BL/6 mice (males, n = 3, 3 months old, weight 22–25 g) by performing an ice-cold PBS peritoneal lavage. Mice were sacrificed by cervical dislocation. Cells were cultivated for 4 h when nonadherent population was removed by washing in PBS, and additionally cultivated overnight in HEPES-buffered RPMI-1640 medium supplemented with 5 [drawing 148] heat-inactivated FCS before treatment with experimental drugs. Animal handling and protocol for isolation of PECs were performed according to European Union rules, and the ARRIVE guidelines 2.0.
For the viability tests, MC38, HCT116, and HT29 cells were seeded in 96-well plates at a density of 2 [drawing 149] 103, 5 [drawing 150] 103, and 6 [drawing 151] 10^3 cells/well, respectively. To determine whether the drug affected the viability of healthy, non-malignant cells, MRC-5 and PECs were seeded in 96-well plates at a density of 8 [drawing 152] 103 and 2 [drawing 153] 10^5 cells/well, respectively. For the flow cytometric analyses, MC38 cells were seeded in 6-well plates at 5 [drawing 154] 10^4 cells/well. For morphological assessment of nuclei and the detection of autophagy, MC38 cells were seeded in 2-well chamber slides at 1.5 [drawing 155] 10^4 cells/well.
After 72 h, cell viability was determined using MTT and CV tests. First, the supernatant from the wells was discarded and the cells were incubated with an MTT solution (0.5 mg mL^−1). After half an hour, the purple formazan crystals formed were dissolved in DMSO. For CV staining of the cells, the cells were fixed with 4 [drawing 157] PFA for 10 min and then stained with a 0.02 [drawing 158] CV solution for 15 min, all at room temperature (RT). The cells were then washed with tap water, air-dried and the dye was dissolved in 33 [drawing 159] acetic acid. For both viability tests, the absorbance of the developed colors was measured using an automated microplate reader at 570 nm with a reference wavelength of 670 nm. The results were expressed as a percentage of the control values of the untreated cells, which were arbitrarily set at 100 [drawing 160] . IC50 values, defined as 50 [drawing 161] inhibitory concentration, were calculated using a four-parameter logistic function and presented as mean±SD. All biological experiments were performed in triplicates. To evaluate the nature of the detected autophagy, a combined treatment with compound 3 and the autophagy inhibitors chloroquine (Chlq) and 3-methyladenine (3-MA) was carried out. […] After 72 h, cell viability was determined by CV assay.

human recombinant COX-2 = target: T1, human recombinant COX-2 (Homo sapiens, UniProt P35354); test: COX Fluorescent Inhibitor Screening Assay, COX-2; assay type: biochemical
T1 construct: purchased Cayman Chemical Company, Ann Arbor, MI, USA
T1 sequence (P35354 18-604): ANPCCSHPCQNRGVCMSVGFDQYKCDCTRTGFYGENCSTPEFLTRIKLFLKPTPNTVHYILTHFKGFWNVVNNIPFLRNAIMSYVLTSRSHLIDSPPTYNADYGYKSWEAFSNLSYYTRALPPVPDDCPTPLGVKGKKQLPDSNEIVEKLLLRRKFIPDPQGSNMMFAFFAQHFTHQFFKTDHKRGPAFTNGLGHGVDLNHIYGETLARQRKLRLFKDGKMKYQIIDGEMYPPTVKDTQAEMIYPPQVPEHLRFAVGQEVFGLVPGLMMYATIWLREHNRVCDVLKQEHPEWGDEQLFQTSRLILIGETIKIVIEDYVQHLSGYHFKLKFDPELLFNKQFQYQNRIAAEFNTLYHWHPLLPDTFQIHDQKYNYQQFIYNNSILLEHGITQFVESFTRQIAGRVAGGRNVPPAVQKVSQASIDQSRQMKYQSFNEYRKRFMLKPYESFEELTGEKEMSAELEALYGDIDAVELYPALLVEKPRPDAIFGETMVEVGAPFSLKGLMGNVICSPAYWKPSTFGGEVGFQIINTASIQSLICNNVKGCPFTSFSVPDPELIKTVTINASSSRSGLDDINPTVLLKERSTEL
Method: The COX inhibition activity against ovine COX-1 and human recombinant COX-2 was determined using the COX Fluorescent Inhibitor Screening Assay Kit (Cayman Chemical Company, Ann Arbor, MI, USA) according to the manufacturer’s instructions as reported.

[1] = system: peritoneal exudate cells (PECs); test: Viability of peritoneal exudate cells; assay type: cell-based, mice; conditions: column head not given
Method: as §1, with “Animal handling and protocol for isolation of PECs were performed according to European Union rules, and the ARRIVE guidelines 2.0.” left out
After 72 h, cell viability was determined using MTT and CV tests. […] For both viability tests, the absorbance of the developed colors was measured using an automated microplate reader at 570 nm with a reference wavelength of 670 nm. The results were expressed as a percentage of the control values of the untreated cells, which were arbitrarily set at 100 [drawing 160] . IC50 values, defined as 50 [drawing 161] inhibitory concentration, were calculated using a four-parameter logistic function and presented as mean±SD. […] To evaluate the nature of the detected autophagy, a combined treatment with compound 3 and the autophagy inhibitors chloroquine (Chlq) and 3-methyladenine (3-MA) was carried out. […] After 72 h, cell viability was determined by CV assay.

1-[2-(7,8-dicarba-nido-undecaborate)]- [drawing 126] H-indolium-2-amine [compound 3]
production of ROS/RNS (DHR 123) (MC38 cells): strongly depleted | IC50 (HT29 cells): 17.6 ± 0.3 µM | %Inh. @ 100 μM (n = 2) COX-2 (human recombinant COX-2; 100 μM): 105% | IC50 (human recombinant COX-2; absolute IC50, 0.1 to 100 μM in duplicate, 95% CI in brackets): 4.58 µM | COX inhibition, in words (human recombinant COX-2; in vitro COX assay, COX-1 and COX-2): moderately active COX-inhibitors | SI1/2 = IC50(COX-1)/IC50(COX-2) (human recombinant COX-2; selectivity index): 3.3 | Selectivity index (IC50 value of primary vs. cancer cells), PEC, second cancer cell line column ([1]; presumably HCT116): 2.17 | Selectivity index (IC50 value of primary vs. cancer cells), PEC, third cancer cell line column ([1]; presumably HT29): 1.42 | Selectivity index (IC50 value of primary vs. cancer cells), PEC, first cancer cell line column ([1]; presumably MC38): 2.63
